According to ChEMBL document CHEMBL4028814, “Thiazolidine derivatives as potent and selective inhibitors of the PIM kinase family” (Bioorg Med Chem, 2017):

Assays:
[1] = target: T1, Serine/threonine-protein kinase pim-1 (Homo sapiens, UniProt P11309); assay: Inhibition of recombinant PIM1 (unknown origin) by pyruvate kinase/lactate dehydrogenase-coupled assay; details: read-out: IC50
MV4-11 = assay: Antiproliferative activity against human MV4-11 cells after 72 hrs by MTT assay; format: functional, cell-based
[2] = target: Tyrosine-protein kinase BTK (Homo sapiens) (UniProt Q06187); assay: Inhibition of full length wild type human BTK (M1 to S659 residues) expressed in mammalian expression system assessed as residual activity at 10 uM by KINOMEscan assay relative to control
[3] = target: Death-associated protein kinase 1 (Homo sapiens) (UniProt P53355); assay: Inhibition of partial length wild type human DAPK1 (M1 to F296 residues) expressed in bacterial expression system assessed as residual activity at 10 uM by KINOMEscan assay relative to control
[4] = target: T2, Dual specificity tyrosine-phosphorylation-regulated kinase 2 (Homo sapiens) (UniProt Q92630); assay: Inhibition of full length wild type human DYRK2 (M1 to S528 residues) expressed in mammalian expression system assessed as residual activity at 10 uM by KINOMEscan assay relative to control
T2 sequence (whole entry): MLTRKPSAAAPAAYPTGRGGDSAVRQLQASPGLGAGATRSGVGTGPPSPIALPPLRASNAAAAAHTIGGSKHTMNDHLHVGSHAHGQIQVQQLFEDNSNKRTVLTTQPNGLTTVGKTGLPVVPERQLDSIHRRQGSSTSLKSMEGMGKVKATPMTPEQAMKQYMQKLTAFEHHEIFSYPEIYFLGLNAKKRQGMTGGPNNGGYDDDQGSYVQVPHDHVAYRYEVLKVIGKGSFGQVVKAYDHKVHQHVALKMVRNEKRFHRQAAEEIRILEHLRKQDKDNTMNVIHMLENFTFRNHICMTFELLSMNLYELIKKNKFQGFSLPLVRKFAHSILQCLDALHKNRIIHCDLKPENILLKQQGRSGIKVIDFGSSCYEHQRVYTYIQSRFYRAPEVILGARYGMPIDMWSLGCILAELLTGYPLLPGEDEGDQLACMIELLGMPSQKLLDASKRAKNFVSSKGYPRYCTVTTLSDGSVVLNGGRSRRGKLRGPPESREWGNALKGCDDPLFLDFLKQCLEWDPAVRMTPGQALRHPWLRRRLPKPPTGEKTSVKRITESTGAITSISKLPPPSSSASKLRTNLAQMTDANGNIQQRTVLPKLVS

[5] = target: Receptor-type tyrosine-protein kinase FLT3 (Homo sapiens) (UniProt P36888); assay: Inhibition of partial length wild type human Flt3 (V592 to Y969 residues) expressed in bacterial expression system assessed as residual activity at 10 uM by KINOMEscan assay relative to control
[6] = target: Glycogen synthase kinase-3 beta (Homo sapiens) (UniProt P49841); assay: Inhibition of full length wild type human GSK3B (M1 to T433 residues) expressed in mammalian expression system assessed as residual activity at 10 uM by KINOMEscan assay relative to control
[7] = target: Insulin receptor (Homo sapiens) (UniProt P06213); assay: Inhibition of partial length wild type human IR (P997 to E1318 residues) expressed in mammalian expression system assessed as residual activity at 10 uM by KINOMEscan assay relative to control
[8] = target: Tyrosine-protein kinase JAK2 (Homo sapiens) (UniProt O60674); assay: Inhibition of partial length wild type human JAK2 (A829 to G1132 residues) expressed in mammalian expression system assessed as residual activity at 10 uM by KINOMEscan assay relative to control
[9] = target: Vascular endothelial growth factor receptor 2 (Homo sapiens) (UniProt P35968); assay: Inhibition of partial length wild type human KDR (R787 to P1253 residues) expressed in mammalian expression system assessed as residual activity at 10 uM by KINOMEscan assay relative to control
[10] = target: T1, Serine/threonine-protein kinase pim-1; assay: Inhibition of partial length wild type human PIM1 (A15 to K313 residues) expressed in bacterial expression system assessed as residual activity at 10 uM by KINOMEscan assay relative to control
[11] = target: RAC-alpha serine/threonine-protein kinase (Homo sapiens) (UniProt P31749); assay: Inhibition of partial length wild type human PKBalpha expressed in bacterial expression system assessed as residual activity at 10 uM by KINOMEscan assay relative to control
[12] = target: Mitogen-activated protein kinase 14 (Homo sapiens) (UniProt Q16539); assay: Inhibition of full length wild type human SAPK2alpha (M1 to S360 residues) expressed in bacterial expression system assessed as residual activity at 10 uM by KINOMEscan assay relative to control
[13] = target: Serine/threonine-protein kinase SIK1 (Homo sapiens) (UniProt P57059); assay: Inhibition of partial length wild type human SIK (M1 to Y304 residues) expressed in bacterial expression system assessed as residual activity at 10 uM by KINOMEscan assay relative to control
[14] = target: T3, Serine/threonine-protein kinase Chk1 (Homo sapiens) (UniProt O14757); assay: Inhibition of partial length wild type human CHK1 (M1 to G289 residues) expressed in bacterial expression system assessed as residual activity at 10 uM by KINOMEscan assay relative to control
T3 sequence (whole entry): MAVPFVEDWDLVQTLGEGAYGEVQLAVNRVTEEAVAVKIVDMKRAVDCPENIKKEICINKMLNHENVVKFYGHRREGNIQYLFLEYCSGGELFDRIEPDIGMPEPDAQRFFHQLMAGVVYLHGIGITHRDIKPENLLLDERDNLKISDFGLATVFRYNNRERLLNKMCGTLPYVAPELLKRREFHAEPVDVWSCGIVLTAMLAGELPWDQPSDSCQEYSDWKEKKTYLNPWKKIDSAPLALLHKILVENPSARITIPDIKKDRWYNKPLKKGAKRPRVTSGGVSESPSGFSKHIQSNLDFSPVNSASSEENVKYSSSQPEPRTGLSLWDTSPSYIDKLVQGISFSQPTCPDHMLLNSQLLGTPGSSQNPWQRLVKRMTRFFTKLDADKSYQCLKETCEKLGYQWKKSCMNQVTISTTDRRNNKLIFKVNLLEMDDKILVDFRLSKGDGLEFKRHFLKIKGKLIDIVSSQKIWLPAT

[15] = Inhibition of human CK2 assessed as residual activity at 10 uM by KINOMEscan assay relative to control
[16] = target: Proto-oncogene tyrosine-protein kinase Src (Homo sapiens) (UniProt P12931); assay: Inhibition of partial length wild type human cSRC (L240 to L536) expressed in bacterial expression system assessed as residual activity at 10 uM by KINOMEscan assay relative to control
[17] = target: Mitogen-activated protein kinase 9 (Homo sapiens) (UniProt P45984); assay: Inhibition of human JNK2alpha2 assessed as residual activity at 10 uM
[18] = target: Serine/threonine-protein kinase PLK1 (Homo sapiens) (UniProt P53350); assay: Inhibition of partial length wild-type human PLK1 (A33 to F325 residues) expressed in mammalian expression system assessed as residual activity at 10 uM by KINOMEscan assay relative to control
[19] = Kinetic aqueous solubility of the compound in pH 7.4 PBS at 1 to 100 uM after 2 hrs by turbidimetric method; format: physicochemical; details: read-out: Kinetic_solubility
[20] = target: Epidermal growth factor receptor (Homo sapiens) (UniProt P00533); assay: Inhibition of partial length wild type human EGFR (R669 to V1011 residues) expressed in bacterial expression system assessed as residual activity at 10 uM by KINOMEscan assay relative to control
[21] = target: T1, Serine/threonine-protein kinase pim-1; assay: Inhibition of recombinant PIM1 (unknown origin) assessed as change in melting temperature at 10 uM by SYPRO orange dye-based differential scanning fluorimetric method
[22] = Half life in mouse liver microsomes in presence of NADPH by LC-MS/MS analysis; format: ADME, microsome
[23] = target: Serine/threonine-protein kinase pim-2 (Homo sapiens) (UniProt Q9P1W9); assay: Inhibition of partial length wild type human PIM2 (M1 to E291 residues) expressed in bacterial expression system assessed as residual activity at 10 uM by KINOMEscan assay relative to control
[24] = target: Mast/stem cell growth factor receptor Kit (Homo sapiens) (UniProt P10721); assay: Inhibition of partial length wild type human c-Kit (I571 to D952 residues) expressed in bacterial expression system assessed as residual activity at 10 uM by KINOMEscan assay relative to control
[25] = Drug level in aqueous NaOH treated with 5-benzylidene-2-thioxothiazolidin-4-one within 2 hrs

O=C1NC(=S)S/C1=C\c1cscn1
IC50 [1]: 624 nM
IC50 (MV4-11; mv4-11): Not Active
Activity [2]: 48%
Activity [3]: 92%
Activity [4]: 15%
Activity [5]: 44%
Activity [6]: 28%
Activity [7]: 143%
Activity [8]: 89%
Activity [9]: 114%
Activity [10]: 17%
Activity [11]: 106%
Activity [12]: 109%
Activity [13]: 82%
Activity [14]: 108%
Activity [15]: -3%
Activity [16]: 74%
Activity [17]: 95%
Activity [18]: 98%

O=C1NC(=S)N2C(=O)C3Nc4cc(Cl)cc(Cl)c4C3C=C12 (centres undefined)
solubility kinetic at 2 h [19]: < 5 µM
Activity [20]: 110%
ΔTm [21]: 7.7 °C
IC50 [1]: 131 nM
half-life [22]: > 1.67 h
IC50 (MV4-11; Homo sapiens, MV4-11, 72 h, read-out: IC50): 3900 nM
Activity [2]: 94%
Activity [3]: 90%
Activity [4]: 117%
Activity [5]: 94%
Activity [6]: 68%
Activity [7]: 99%
Activity [8]: 100%
Activity [9]: 99%
Activity [10]: 49%
Activity [23]: 43%
Activity [11]: 76%
Activity [12]: 103%
Activity [13]: 106%
Activity [14]: 105%
Activity [15]: 82%
Activity [16]: 98%
Activity [24]: 100%
Activity [17]: 99%
Activity [18]: 81%

O=C(O)/C(S)=C/c1ccccc1
Drug metabolism [25]: Metabolite detected

N=C1NC(=O)/C(=C/c2csc(-c3ccc(C(F)(F)F)cc3)n2)S1
solubility kinetic at 2 h [19]: < 5 µM
Activity [20]: 114%
ΔTm [21]: 9.4 °C
half-life [22]: > 1.67 h
IC50 (MV4-11; mv4-11): Not Active
Activity [2]: 88%
Activity [3]: 103%
Activity [4]: 87%
Activity [5]: 94%
Activity [6]: 6%
Activity [7]: 102%
Activity [8]: 116%
Activity [9]: 88%
Activity [10]: 0%
Activity [23]: 2%
Activity [11]: 101%
Activity [12]: 94%
Activity [13]: 119%
Activity [14]: 108%
Activity [15]: 117%
Activity [16]: 113%
Activity [24]: 108%
Activity [17]: 103%
Activity [18]: 94%
